We go through 4 molecules from patent US9511072B2, “Methods of modulating cell proliferation and cyst formation in polycystic kidney and liver diseases” (The Medical College of Wisconsin, Inc., priority 2006, dated 2016).

One test relates to 20-HETE. The settings on record: cited from earlier work.
The test system of a further test is cystic BPK cells. Kind of test: BrdU incorporation in cystic BPK cells. In kind it is cell-based, mouse. The settings on record: 10 μM, 36 hours; vehicle 118. The method, then: To determine the level of proliferation in the cystic BPK cells, chemically dissimilar inhibitors of cytochrome P450 4A (CYP4A) and 4F (CYP4F) inhibitors, specifically HET-0016 (10 and 20 μM) and DDMS (10 μM), were incubated for 36 hours with the BPK cells. Three hours prior to the harvesting of the cells, 5-bromo-2′-deoxyuridine (BrdU) at a concentration of 30 μM was added to determine the level of cell cycle inhibition. The cells were subsequently methanol fixed and BrdU-positive cells were identified by immunohistology with biotinylated monoclonal anti-BrdU antibody (Zymed, South San Francisco, Calif.). Data were expressed as the percentage of BrdU-labeled cells per 500 counted cells.
(In general: Incorporation of labelled thymidine or its analogues reports DNA synthesis.)

The test system of the next test is REC11 cells. Kind of test: BrdU proliferation of EGF-stimulated REC11 cystic renal epithelial cells. Format: cell-based, mouse. The settings on record: 10 μM, 36 hrs, after EGF 25 ng/ml for 6 hours. From the text: REC11 cystic cell line is a conditionally immortalized epithelial collecting tubule (CT) cell line derived from the cystic kidneys of the BPK mouse model of human ARPKD crossed to the ImmortoMouse. The BPK mouse as a human ARPKD model has been described in Nauta J. et al., Pediatr Nephrol 1993, 7:163-172 and Nauta J. et al., Pediatr Res 1995, 37:755-763. The procedures for immortalization, cell isolation, cell culture and the complete phenotypic characterization of this cell line have been described in detail in Sweeney W. E. et al., Am J Physiol C Physiol 2001, 281:C1695-705. All analysis and experiments were performed on REC11 cells grown for a minimum 6 days under non-permissive conditions to eliminate residual Large T.
Proliferation of REC11 cells was stimulated by exposure of the cells for 6 hours with EGF (25 ng/ml). Next, the cells were treated with vehicle, HET0016 (10 μM, a 20-HETE synthesis inhibitor), HET0016 (20 μM), DDMS (10 μM, a 20-HETE synthesis inhibitor), or WIT-002 (10 μM, a 20-HETE antagonist) for 36 hrs, pulsed with BrdU, and then stained for BrdU labeled cells to determine the degree of cell proliferation. […] Cells treated with a higher dose of HET0016 (20 μM) (column C) reduced proliferation by 75% (p<0.020). Cells treated with another chemically dissimilar inhibitor of the synthesis of 20-HETE, DDMS (10 μM) (column D), reduced proliferation by 47% (p<0.05). Cells treated with WIT-002 (10 μM) (column E) reduced proliferation by 25%.

Regarding `Nn1nnc2ccccc21` [Compound 1-ABT, 1-aminobenzotriazole], the “20-HETE levels in vivo” value with 20-HETE is listed as “reduce 20-HETE levels in vivo”. In the case of `C#CCCCCCCCCCCCCCCCC(=O)O` [Compound 17-ODYA, 17-Octadecynoic acid], in the test with 20-HETE, the “20-HETE levels in vivo” value is on record as “reduce 20-HETE levels in vivo”. Take `CS(=O)(=O)NC(=O)CCCCCCCCCC=C(Br)Br` [DDMS, dibromododecenyl methylsulfonimide]: the “BrdU-positive cells per 500 total cells counted” value in the test on cystic BPK cells was 63 BrdU(+) cells. Besides, the “reduction of proliferation (BrdU labeled cells) vs vehicle” value with REC11 cells was 47%. Take `O=C(O)CCCC/C=C\CCCCCCC/C=C\CCCCO` [WIT-002, 20-hydroxyeicosa-6(Z),15(Z)-dienoic acid]: in the test on REC11 cells, the “reduction of proliferation (BrdU labeled cells) vs vehicle” value stood at 25%.
